The values that follow come from US10383872B2, “Pharmaceutical compositions comprising phenylaminopyrimidine derivative” (priority 2015, dated 2019).

Converted amounts (≈) assume the structure as drawn.

Data set [1] is described as follows: Solubility of NRC-AN-019 (aqueous at physiological pH; organic solvents). The class given is physicochemical. An excerpt: Its molecular formula is C25H17F6N5O and its relative molecular mass is 517.44.
It is soluble in dimethylformamide, dimethylacetamide and dimethyl sulfoxide. NRC-AN-019 presents specific difficulties in relation to solubility and its formulation development. Oral absorption of such insoluble drugs is the key point to be considered in solving the problem of low bioavailability.

Data set [2] in a line: Oral gavage pharmacokinetics (suspension) in albino wistar rats. Conditions: rat, in vivo, oral gavage 40 mg/kg·bw. From the text:
FIG. 1 illustrates the area under the curve in albino wistar rats after oral administration of NRC-AN-019 “as is” and different solid dispersions in accordance with the invention.
The study discloses better bioavailability characteristics of NRC-AN-019 in the formulation of the present invention than NRC-AN-019 as such. Thus, the optimum bioavailability can be achieved for the therapeutic effectiveness of NRC-AN-019. The maximum concentration and AUC of the formulation of the present invention are substantially higher than that of NRC-AN-019 “as is” due to better absorption characteristics of the solid dispersion of NRC-AN-019 in amorphous or, partially amorphous or, crystalline form. The details of the process of the invention are provided in the examples given below which is provided by way of illustration only and therefore should not be construed to limit the scope of the invention. The preparation of the present invention that can be administered by the oral route is carried out according to the following process.
NRC-AN-019 active pharmaceutical ingredient (API) and the compositions of the present invention were administered through oral gavage at 40 mg/kg·bw in the form of a suspension in albino wistar rats. […] The Cmax and AUC0-∞ for the compositions of the present invention vary between 900 ng/mL to 2000 ng/mL and 7500 ng·hr/mL to 16000 ng·hr/mL respectively.

One may read the solubility as how much of the substance goes into solution per volume. Usually Cmax stands for the maximum level reached in the sampled fluid or tissue. `Cc1ccc(NC(=O)c2cc(C(F)(F)F)cc(C(F)(F)F)c2)cc1Nc1nccc(-c2cccnc2)n1` [NRC-AN-019, (3,5-Bis trifluoromethyl)-N-[4-methyl-3-(4-pyridin-3-yl-pyrimidin-2-yl-amino)phenyl]benzamide]: the solubility in data set [1] (aqueous medium at pH 1.2 (buffer not named), pH 1.2, simulated gastric fluid) was 6.6 µg/mL (≈ 12.8 µM); in data set [1] (aqueous medium at pH 2.0 (buffer not named), pH 2, simulated gastric fluid), 0.2 µg/mL (≈ 0.387 µM). The “solubility in organic solvents” value in data set [1] (dimethylformamide, dimethylacetamide and dimethyl sulfoxide) was “soluble”. The aqueous solubility result in data set [1] (pH 3.0, 4.0, 5.0, 6.0, 6.8, 7.0, 7.5, 8.0 and water) was “below detection limit”. The solubility in water result in data set [1] (water) was “practically insoluble”. Besides, in data set [2], the Cmax came to 33.7 ng/mL. In data set [2] (read-out: average AUC0-∞), the AUC(0-inf) worked out at 453 ng·h/mL.
